Assay: stability of valsartan salt (solid, aqueous; TLC)
Type: physicochemical
Details: 50 and 200 mg/L, 3-10 week old solutions, room temperature, dark
Experimental: The solution is cooled to room temperature slowly without external cooling to discourage precipitation of the drug.
The solution was then cooled to room temperature slowly without external cooling to discourage precipitation of the drug. […] Quality was assessed in 3-10 week old solutions stored at room temperature in dark compartments. Drinking solutions for the in vivo treatments were freshly prepared twice a week. Liquid consumption and animal body weight were monitored weekly throughout the study.

CCCCC(=O)N(Cc1ccc(-c2ccccc2-c2nnn[nH]2)cc1)[C@H](C(=O)O)C(C)C [Sodium valsartan]
stability of drinking solutions by TLC analysis: no change in the recovered compound
